# What was measured:
# [1] = biological target: T1, Muscarinic acetylcholine receptor M1 (Rattus norvegicus, UniProt P08482)
# T1 sequence (P08482 whole entry): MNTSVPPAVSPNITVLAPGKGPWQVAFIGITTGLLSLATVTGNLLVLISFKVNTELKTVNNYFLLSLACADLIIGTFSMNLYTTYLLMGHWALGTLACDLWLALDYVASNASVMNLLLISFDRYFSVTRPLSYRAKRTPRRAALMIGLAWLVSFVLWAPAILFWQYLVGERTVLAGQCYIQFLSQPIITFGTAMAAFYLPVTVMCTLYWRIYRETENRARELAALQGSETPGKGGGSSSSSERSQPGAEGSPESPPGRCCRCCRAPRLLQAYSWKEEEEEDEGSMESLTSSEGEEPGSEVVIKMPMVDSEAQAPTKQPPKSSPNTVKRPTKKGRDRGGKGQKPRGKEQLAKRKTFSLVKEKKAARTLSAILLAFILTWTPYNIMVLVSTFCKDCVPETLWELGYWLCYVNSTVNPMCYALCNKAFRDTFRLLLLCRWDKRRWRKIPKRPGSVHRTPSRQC
# [2] = biological target: T2, Muscarinic acetylcholine receptor M4 (Homo sapiens, UniProt P08173)
# T2 sequence (P08173 whole entry): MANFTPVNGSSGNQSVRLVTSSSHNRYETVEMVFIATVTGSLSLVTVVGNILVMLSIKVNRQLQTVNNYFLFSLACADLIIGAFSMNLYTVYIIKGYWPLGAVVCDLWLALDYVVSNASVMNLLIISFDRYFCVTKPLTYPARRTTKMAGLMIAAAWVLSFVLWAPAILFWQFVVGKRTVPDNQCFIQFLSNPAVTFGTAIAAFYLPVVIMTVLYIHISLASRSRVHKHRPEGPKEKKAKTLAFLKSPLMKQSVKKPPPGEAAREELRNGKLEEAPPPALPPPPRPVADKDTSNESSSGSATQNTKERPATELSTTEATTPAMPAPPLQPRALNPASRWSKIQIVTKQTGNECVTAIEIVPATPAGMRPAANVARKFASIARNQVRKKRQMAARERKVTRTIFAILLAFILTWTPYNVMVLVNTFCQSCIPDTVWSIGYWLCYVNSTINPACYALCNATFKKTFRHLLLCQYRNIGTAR
# [3] = biological target: T3, Muscarinic acetylcholine receptor M5 (Homo sapiens, UniProt P08912)
# T3 sequence (P08912 whole entry): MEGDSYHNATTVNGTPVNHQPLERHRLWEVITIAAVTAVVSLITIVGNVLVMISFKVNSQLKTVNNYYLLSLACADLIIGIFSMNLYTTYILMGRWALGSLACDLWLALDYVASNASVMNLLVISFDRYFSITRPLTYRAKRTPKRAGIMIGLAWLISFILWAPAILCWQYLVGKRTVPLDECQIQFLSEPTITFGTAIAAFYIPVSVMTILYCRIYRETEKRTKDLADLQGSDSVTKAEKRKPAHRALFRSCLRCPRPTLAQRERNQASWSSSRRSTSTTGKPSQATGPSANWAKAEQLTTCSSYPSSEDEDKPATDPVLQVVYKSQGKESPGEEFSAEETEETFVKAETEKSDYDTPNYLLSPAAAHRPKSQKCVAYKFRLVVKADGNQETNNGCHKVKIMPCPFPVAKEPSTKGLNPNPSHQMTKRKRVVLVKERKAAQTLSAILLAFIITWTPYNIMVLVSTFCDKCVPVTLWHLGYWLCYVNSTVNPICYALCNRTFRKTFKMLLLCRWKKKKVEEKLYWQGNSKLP
SMILES,Ki [1],Ki [2],Ki [3]
C[N+]1(C)CCN(CC(O)(c2ccccc2)C2CCCCC2)CC1 (stereo unspecified) [CAS_115-63-9],2.3 nM,5.5 nM,3.7 nM
OC(CCCN1CCCCC1)(c1ccccc1)C1CCCCC1 (stereo unspecified) [CAS_113010-69-8],11 nM,,83 nM
C[N+]1([SiH3])CCN(CC(O)(c2ccccc2)C2CCCCC2)CC1 (stereo unspecified) [CAS_124393-85-7],2 nM,3.2 nM,2 nM
O[Si](CCCN1CCCCC1)(c1ccccc1)C1CCCCC1 (stereo unspecified) [HHSiD],44 nM,,63 nM
COc1ccccc1CNCCCCCCNCCCCCCCCNCCCCCCNCc1ccccc1OC [METHOCTRAMINE],,,57 nM
